Assay results: the supplement of paper PMC10307832

Key:
Test in all cases: relative viability (nuclei count vs DMSO), 5 days (fraction); higher = more cells survive
Fedratinib = compound: Cc1cnc(Nc2ccc(OCCN3CCCC3)cc2)nc1Nc1cccc(S(=O)(=O)NC(C)(C)C)c1 [Fedratinib]
Summary of the method: (§1)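 Following overnight incubation at 37 °C, lung cancer cell lines in 1536-well plates were pinned with five library-drug doses (not always all listed) in √10 steps on vehicle-anchored plates. The cells then spent 5 days without medium change before a combined fix, permeabilisation and Hoechst stain, 4× imaging and MetaXpress nuclear counts. Viability is the treated-to-vehicle ratio of nuclei, taken as the median across plates. Only plates with control CV below 25% and at least one doubling passed.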

GW-2580 = compound: COC1=CC=C(C=C1)COC2=C(C=C(C=C2)CC3=CN=C(N=C3N)N)OC [GW-2580]
Summary of the method: as §1

GW-2580 + Bortezomib = compound: COC1=CC=C(C=C1)COC2=C(C=C(C=C2)CC3=CN=C(N=C3N)N)OC [GW-2580] + CC(C)C[C@H](NC(=O)[C@H](Cc1ccccc1)NC(=O)c1cnccn1)B(O)O [Bortezomib] (partner 0.002 µM)
Summary of the method: (§2)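 A single step with final 0.05% Triton X-100, 1% formaldehyde and 1 ug/ml Hoechst fixed the cells and stained nuclei 5 days after treatment. Lung cancer cell lines in 1536-well plates had been treated by pin tool the day after seeding with one drug alone or a fixed anchor-drug dose plus five library-drug doses (not always all listed) in √10 steps, and nuclei were counted on 4× images. Relative viability is the ratio of nuclei in treated wells to nuclei in vehicle wells, taken as the median of duplicate plates.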

GW-2580 + Pemetrexed = compound: COC1=CC=C(C=C1)COC2=C(C=C(C=C2)CC3=CN=C(N=C3N)N)OC [GW-2580] + Nc1nc2[nH]cc(CCc3ccc(C(=O)N[C@@H](CCC(=O)O)C(=O)O)cc3)c2c(=O)[nH]1 [Pemetrexed] (partner 0.2 µM)
Summary of the method: as §2

| Cell Line | relative viability (Fedratinib; 0.1 µM) | relative viability (Fedratinib; 0.3162 µM) | relative viability (Fedratinib; 1 µM) | relative viability (GW-2580; 0.08 µM) | relative viability (GW-2580; 0.8 µM) | relative viability (GW-2580; 2.53 µM) | relative viability (GW-2580; 8 µM) | relative viability (GW-2580 + Bortezomib; first compound 0.08 µM) | relative viability (GW-2580 + Bortezomib; first compound 0.8 µM) | relative viability (GW-2580 + Bortezomib; first compound 2.53 µM) | relative viability (GW-2580 + Bortezomib; first compound 8 µM) | relative viability (GW-2580 + Pemetrexed; first compound 0.08 µM) | relative viability (GW-2580 + Pemetrexed; first compound 0.8 µM) | relative viability (GW-2580 + Pemetrexed; first compound 2.53 µM) | relative viability (GW-2580 + Pemetrexed; first compound 8 µM) |
| --- | --- | --- | --- | --- | --- | --- | --- | --- | --- | --- | --- | --- | --- | --- | --- |
| NCI-H2023 | 1.02 | 0.962 | 0.754 | 1.12 | 1.07 | 0.933 | 1.06 | 1.01 | 1.14 | 0.733 | 0.904 | 0.344 | 0.279 | 0.238 | 0.205 |
| NCI-H2085 | 0.929 | 1.02 | 0.883 | 1.05 | 1.03 | 0.987 | 0.954 | 1.11 | 1.12 | 1.19 | 1.03 | 0.963 | 1.01 | 0.885 | 0.838 |
| NCI-H2087 | 1 | 0.99 | 0.856 | 1 | 1.08 | 0.942 | 0.933 | 0.966 | 1.16 | 0.79 | 0.872 | 0.68 | 0.713 | 0.7 | 0.625 |
| NCI-H2126 | 0.95 | 0.98 | 0.927 | 1.02 | 1.01 | 0.979 | 1.05 | 1.14 | 1.24 | 1.03 | 1.14 | 0.664 | 0.709 | 0.63 | 0.612 |
| NCI-H2228 | 0.884 | 0.785 | 0.723 | 1.18 | 1.16 | 0.921 | 0.882 | 1.03 | 1.1 | 0.958 | 0.986 | 0.408 | 0.306 | 0.338 | 0.327 |
| NCI-H2347 | 1.04 | 0.932 | 0.938 | 0.989 | 1.1 | 0.88 | 1.07 | 1.01 | 1.23 | 0.842 | 1.26 | 0.468 | 0.473 | 0.464 | 0.446 |
| NCI-H2405 | 0.937 | 0.939 | 0.834 | 0.99 | 1.13 | 0.902 | 0.936 | 1.02 | 1.03 | 0.807 | 0.951 | 1.04 | 1.2 | 1.02 | 0.799 |
| NCI-H3122 | 1.05 | 1.02 | 0.892 | 1.03 | 1.09 | 1.06 | 1.01 | 1.04 | 0.939 | 1.1 | 1.11 | 0.212 | 0.211 | 0.203 | 0.207 |
| PC-3 [JPC-3] | 0.987 | 1.03 | 0.953 | 1.12 | 1.14 | 1.09 | 0.964 | 0.886 | 1.01 | 0.846 | 0.792 | 0.908 | 1.39 | 0.861 | 0.658 |
| PC-14 | 0.986 | 1.09 | 0.906 | 1.07 | 1.19 | 0.966 | 0.969 | 0.934 | 1.09 | 0.779 | 0.95 | 0.14 | 0.136 | 0.137 | 0.127 |
| RERF-LC-KJ | 1.03 | 1.04 | 0.917 | 1.08 | 1.15 | 0.921 | 0.977 | 1.22 | 1.06 | 1.04 | 1.08 | 0.491 | 0.44 | 0.504 | 0.523 |
| SK-LU-1 | 1.06 | 0.906 | 0.868 | 1.09 | 1.12 | 0.826 | 1.14 | 0.902 | 1.42 | 0.73 | 1.54 | 1.09 | 1.05 | 0.878 | 0.996 |
| SW 1573 | 0.987 | 0.998 | 0.897 | 1.05 | 0.994 | 0.868 | 0.946 | 0.903 | 0.932 | 0.987 | 0.798 | 0.908 | 0.883 | 0.861 | 0.639 |
